Test results reported in publication PMC5826917, “A small molecule inhibitor of Nicotinamide N-methyltransferase for the treatment of metabolic disorders” (Scientific Reports, 2018).

Tests used:
[1] = tested on: wild-type and NNMT knockout mice on HFD
From the text: NNMT fl/fl mice on a C57BL/6 background were generated by Regeneron Pharmaceuticals (Tarrytown, NY) using VelociGene® technology. A loxP locus was placed 1.6 kb upstream of the transcription starting site encompassing the gene promoter. A loxP-Frt-Hyg-Frt cassette was inserted 212 bp downstream of NNMT exon 1. The floxed coordinates were chr9:48,412,881–48,414,698. NNMT fl/fl mice were crossed with ZP3-cre mice (C57BL/6, Jackson Laboratories) to generate whole-body NNMT knockout mice. The DIO mouse study was conducted in accordance to the German Animal Protection Law, as well as according to international animal welfare legislation and rules. Female wild-type and NNMT knockout animals were put on high-fat diet (Ssniff HFD adjusted TD.97366) for 18 weeks and then treated with either JBSNF-000088 (50 mg/kg bid by oral gavage) or vehicle for four weeks (n = 9–10 per group). Throughout the study, Mice were housed in an environmentally controlled room at 23 °C on a 12 h:12 h light dark cycle (light on at 06:00 AM), and food and water was offered ad libitum. An oral glucose tolerance test was performed on day 25 of treatment: Animals were fasted overnight. 60 minutes before an oral glucose bolus (2 g kg^−1), JBSNF-000088 (50 mg kg^−1) or vehicle (0.5% HEC + 0.5% Tween80) was administered by oral gavage. For blood glucose analysis, blood was collected from the tail of conscious mice at time points 15, 30, 60 and 120 minutes after the glucose bolus.

[2] = tested on: mice with diet-induced obesity (DIO); assay: Chronic efficacy study in diet-induced obesity (DIO) mice; assay type: in vivo, C57BL6/N mice
Description: Samples for MNA were analyzed employing a fit-for-purpose LC-MS/MS method. PE-Sciex API-4000 triple quadrupole (PerkinElmerSciex Instruments, Boston, MA) mass spectrometer was employed for this analysis. Samples (5 µL) were injected onto Kinetex HILIC (50 × 4.6 mm, 2.6 µm; Phenomenex, Torrance, CA, USA) column connected to Shimadzu VP (Shimadzu, Japan) LC system. The gradient mobile phase mixture of 0.2% formic acid and acetonitrile was delivered at a flow rate of 0.45 ml min-1 into the mass spectrometer electrospray ionization (ESI) chamber. Quantitation was achieved by MS/MS detection in positive ion mode for MNA and internal standard (d4–MNA). Detection of the ions was performed in the multiple reaction monitoring (MRM) mode, monitoring the transition of the m/z 137 precursor ion to the m/z 92 product ion for MNA and m/z 141 precursor ion to the m/z 84 product ion for d4-MNA (internal standard).
A simple protein precipitation extraction method was followed for extraction of N-methylnicotinamide from plasma and various tissue homogenate samples. The tissue samples were homogenized with 1:3 proportions of phosphate buffer saline (PBS) and this homogenate was used for N-Methylnicotinamide determinations. To an aliquot of ~50 μL of plasma/ liver homogenate/ adipose tissue homogenate samples ~300 µl of acetonitrile containing IS (d4-MNA) solution was added, followed by vortex for ~3 minutes and centrifuged for 10 minutes at 14,000 rpm. The supernatant was separated and transferred to pre-labeled HPLC vials and analyzed by LC-MS/MS system.
Male C57BL6/N (Vivo Bio Tech Ltd, India), ob/ob (B6.V-Lepob/OlaHsd) and its lean control (Envigo laboratories Inc, USA) and db/db (BKS.Cg- + Leprdb/ + Leprdb/OlaHsd) and its lean control (Envigo laboratories Inc, USA) were housed in individually ventilated cages (n = 5/cage) under standard laboratory conditions. The study room environment was maintained at a temperature of 21–24 °C and, relative humidity at 40–70%. The animal rooms were maintained under 12 h light and dark cycle. Animals were provided with ad libitum access to water and food (except where noted otherwise, e.g. during fasting prior for glucose tolerance tests, fasting prior to terminal sacrifice). Animals were acclimatized for 1 week before initiation of studies. For Diet induced obesity (DIO) mice study, C57BL6/N mice were maintained on rodents chow diet (Teklad; Harlan) or HFD (60% Kcal; Research diet) for 14 weeks before study initiation and throughout the study period. ob/ob and db/db mice and their lean controls were maintained on rodents chow diet (Teklad; Harlan). All the experiments were approved by Institutional Animal Ethics Committee (IAEC) of Jubilant Biosys Ltd, India.
Lean control + Vehicle and HFD + Vehicle Control groups (G1 and G2) mice were administered with vehicle. Dose formulations of HFD + JBSNF-000088, 50 mg kg^−1, po, bid were administered at dose volume of 5 mL kg^−1 body weight to G3 mice. Similar pattern was followed for ob/ob mice and db/db mice studies. The dose volume for individual animals was calculated based on the most recently recorded body weight during the study period. […] Cage side observations of animals for visible clinical signs, was carried out once daily throughout the study period. Individual animal body weights were recorded twice weekly during the study period.
The ob/ob mice were 12 weeks of age at the start of the study and db/db mice were 8 weeks of age at the start of the study. DIO mice were 20 weeks of age at the start of the study. In each study, non-diabetic lean mice comprised the control group which received vehicle (0.5% w/v HEC and 0.5% v/v Tween 80) and obese or diabetic mice were randomly assigned to two groups based on body weight and unfasted glucose which received either vehicle (0.5% w/v HEC and 0.5% v/v Tween 80) or JBSNF-000088, 50 mg kg^−1, po, bid for 30 days.

[3] = tested on: endogenous NNMT activity in U2OS cells; assay: Cell based U2OS assay (MNA levels by LC-MS/MS); conditions: Homo sapiens, 24 h treatment
Description: PE-Sciex API-4000 triple quadrupole (PerkinElmerSciex Instruments, Boston, MA) mass spectrometer was employed for this analysis. […] Detection of the ions was performed in the multiple reaction monitoring (MRM) mode, monitoring the transition of the m/z 137 precursor ion to the m/z 92 product ion for MNA and m/z 141 precursor ion to the m/z 84 product ion for d4-MNA (internal standard).
The supernatant was separated and transferred to pre-labeled HPLC vials and analyzed by LC-MS/MS system.

in vivo = conditions: C57BL/6, mouse
[4] = tested on: Ca2+ Channel (L-Type DHP Site); assay: Selectivity panel: Ca2+ channel; assay type: binding; conditions: 10 µM

Compound: COc1ccc(C(N)=O)cn1 [JBSNF-000088, 6-methoxynicotinamide]
- insulin level or glucose-handling in NNMT knockout mice ([1]; NNMT knockout mice, vs vehicle-treated knockout): no differences in insulin level or glucose-handling
- Fed glucose levels ([1]; after 28 days, vehicle vs JBSNF-000088, wild-type or knockout): not different
- glucose tolerance ([1]; treated wild-type mice vs vehicle treated): improvement in glucose tolerance
- plasma MNA ([1]; wild-type animals, one hour after last administration, 28-day treatment): significant reduction in plasma MNA
- fed insulin levels ([1]; wild-type mice, four weeks, not statistically significant): trend to reduced insulin levels
- food intake ([1]; wild-type or knockout animals, four weeks): no change in food intake
- body weight (%) ([2]; 50 mg kg^−1 b.i.d. p.o., four weeks, vs vehicle): statistically significant reduction
- cumulative food intake ([2]; 50 mg kg^−1 b.i.d. p.o., vs vehicle): comparable
- fed plasma insulin ([2]; day 14, p < 0.01 vs HFD control): trend to a reduction in fed plasma insulin that was statistically significant on day 14
- fed blood glucose ([2]; day 21, p < 0.01 vs vehicle control): statistically significant reduction
- oral glucose tolerance ([2]; day 28, normalized to chow control group): statistically significant improvement
- AUC blood glucose (OGTT) ([2]; day 28, p < 0.001 vs HFD control): Significantly lower
- MNA levels in visceral WAT ([2]; p < 0.0001 vs HFD control): statistically significant reduction
- plasma insulin at 0 and 15 minutes of OGTT ([2]; p < 0.0001 vs HFD control): statistically significant lower
- HOMA-IR index ([2]; p < 0.0001 vs vehicle-treated HFD controls): statistically significant improvement
- plasma triglyceride ([2]; p < 0.001 vs HFD control, data not shown): statistically significant reduction
- liver triglyceride ([2]; p < 0.05 vs HFD control, data not shown): statistically significant reduction
- IC50 [3]: 1600 nM
- Vd (in vivo): 0.69 L/kg
- bioavailability (in vivo): 43%
- clearance (in vivo): 20.5 mL/min/kg
- clearance (in vivo; iv): 21 mL/min/kg
- half-life (in vivo; iv): 30 min
- Cmax (in vivo; po, 10 mg/kg): 3570 ng/mL
- Tmax (in vivo; po, 10 mg/kg): 30 min
- bioavailability (in vivo; po, 10 mg/kg): ~40%
- half-life (in vivo; po, 10 mg/kg): 24 min
- I% (antagonistic or inhibitory), Ca2+ Channel (L-Type DHP Site) [4]: 0%
